The text below walks through data of patent publication US12534469B2 (CHILDREN'S HOSPITAL MEDICAL CENTER, priority 2020, dated 2026).

One assay addresses T1, IRAK1 (Homo sapiens, UniProt P51617).
T1 construct: purchased Reaction Biology (RBC HotSpot Kinase Assay)
In words: RBC HotSpot Kinase Assay, IRAK1. It is filed as biochemical. Put shortly: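 Radiometric filter-binding (HotSpot) activity assay on isolated recombinant kinase, possibly truncated or catalytic domain only, in 20 mM Hepes pH 7.5, 10 mM MgCl2, 1 mM EGTA, 2 mM DTT, 1% DMSO. Compound preincubated 20 min with kinase and substrate, then ^33P-ATP added. Reaction 2 h at room temperature, read by P81 filter binding.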

Another assay has as its target T2, IRAK4 (Homo sapiens, UniProt Q9NWZ3).
T2 sequence (Q9NWZ3 1-460): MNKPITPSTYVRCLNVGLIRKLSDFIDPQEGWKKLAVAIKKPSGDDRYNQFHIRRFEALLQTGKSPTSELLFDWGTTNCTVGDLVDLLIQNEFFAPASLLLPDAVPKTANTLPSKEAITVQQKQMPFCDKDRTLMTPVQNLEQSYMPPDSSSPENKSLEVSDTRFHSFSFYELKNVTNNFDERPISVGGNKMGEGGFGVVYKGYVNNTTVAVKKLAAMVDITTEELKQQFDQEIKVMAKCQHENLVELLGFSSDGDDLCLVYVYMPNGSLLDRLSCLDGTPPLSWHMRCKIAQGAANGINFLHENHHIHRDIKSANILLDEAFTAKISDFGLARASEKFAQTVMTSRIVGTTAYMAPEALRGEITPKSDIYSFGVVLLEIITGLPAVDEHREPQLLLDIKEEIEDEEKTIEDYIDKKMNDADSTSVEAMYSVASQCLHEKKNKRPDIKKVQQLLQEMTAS
In words: Reaction Biology NanoBRET target engagement assay, IRAK4. It is filed as cell-based. Conditions: transfected HEK-293 cells. From the text: The NanoBRET assay measures kinase engagement in real time in the context of the intact cell. Unlike the previously described biochemical kinase assay methodologies in Examples 26-27, the NanoBRET assay measures the binding and activity characteristics under equilibrium conditions using full-length kinases in the presence of cellular concentrations of ATP in live, uncompromised cells. As such, the assay provides a more relevant assessment of kinase potency and selectivity that would be expected to be observed in the native cellular environment, where potency is often considerably lower than that observed in the isolated biochemical assays (Vasta, J. D. et al., (2018) Cell Chem. Biol. 25, 206-214). The assay uses a Kinase-NanoLuc® fusion vector expressing a kinase protein to which a luciferase tag has been added, a cell-permeant fluorescent NanoBRET™ tracer, a NanoLuc® substrate, and an extracellular NanoLuc® inhibitor. Upon expression of the luciferase-tagged kinase, cells will produce a strong BRET signal only in the presence of the NanoBRET™ tracer. The extracellular NanoLuc® inhibitor ensures that the BRET signal observed emanates only from live cells. Because the BRET signal has tight distance constraints, addition of the test compound will decrease the BRET signal if the compound competes with the NanoBRET™ tracer for binding to the kinase domain. Under the appropriate tracer conditions established by the manufacturer, quantitative intracellular affinity and relative potency can then be determined using Mass Action model equations.
HEK-293 cells were purchased from ATCC. FuGENEHD Transfection Reagent, Kinase-NanoLucfusion plasmids, Transfection Carrier DNA, NanoBRETTracers and dilution buffer, NanoBRETNano-Glo Substrate, Extracellular NanoLucInhibitor were obtained from Promega.
Assays were conducted following Promega assay protocol with some modifications. HEK-293 Cells were transiently transfected with Kinase-NanoLucFusion Vector DNA by FuGENEHD Transfection Reagent. Testing compounds were delivered into 384 well assay plate by Echo 550 (LabcyteInc, Sunnyvale, CA). Transfected cells were harvested and mixed with NanoBRETTracer Reagent and dispensed into 384 well plates and incubated at 37° C. in 5% CO2 cell culture incubator for 1 hour. The NanoBRETNano-Glo Substrate plus Extracellular NanoLucInhibitor Solution were added into the wells of the assay plate and incubated for 2-3 minutes at room temperature. The donor emission wavelength (460 nm) and acceptor emission wavelength (600 nm) were measured in the EnVisionplate reader. The BRET Ratios were calculated. BRET Ratio=[(Acceptor sample÷Donor sample)−(Acceptor no-tracer control÷Donor no-tracer control)]. The IC50 values of compounds were calculated with Prism GraphPad program.
• 1). Cultivate HEK-293 cells (70-80% confluence) appropriately prior to assay. Trypsinize and collect HEK-293 cells. • 2). Prepare lipid: DNA complexes as follows: • a. Prepare a 10 μg/ml solution of DNA in Opti-MEM without serum that consists of the following ratios of carrier DNA and DNA encoding NanoLuc® fusion. 9.0 μg/mL of Transfection Carrier DNA, 1.0 μg/mL of NanoLuc fusion vector DNA and 1 mL of Opti-MEM without phenol red. Mix thoroughly. • b. Add 30 μl of FuGENE HD Transfection Reagent into each milliliter of DNA mixture to form lipid:DNA complex. • c. Mix by inversion 10 times. • d. Incubate at ambient temperature for 20 minutes to allow complexes to form. • 3). In a sterile, conical tube, mix 1 part of lipid:DNA complex with 20 parts of HEK-293 cells in suspension. Mix gently by inversion 5 times. • 4). Dispense cells+lipid:DNA complex into a sterile tissue culture dish and incubate for 22-24 hours. 2. Addition of Test Compounds (Dry Plate Shooting)
Each test compound is delivered from the compound source plate to the wells of 384-well white NBS plate by Echo 550.
• 1). […]
On the technique in general: BRET reads energy transfer from a luciferase to a nearby fluorophore.

T1 sequence (P51617 whole entry): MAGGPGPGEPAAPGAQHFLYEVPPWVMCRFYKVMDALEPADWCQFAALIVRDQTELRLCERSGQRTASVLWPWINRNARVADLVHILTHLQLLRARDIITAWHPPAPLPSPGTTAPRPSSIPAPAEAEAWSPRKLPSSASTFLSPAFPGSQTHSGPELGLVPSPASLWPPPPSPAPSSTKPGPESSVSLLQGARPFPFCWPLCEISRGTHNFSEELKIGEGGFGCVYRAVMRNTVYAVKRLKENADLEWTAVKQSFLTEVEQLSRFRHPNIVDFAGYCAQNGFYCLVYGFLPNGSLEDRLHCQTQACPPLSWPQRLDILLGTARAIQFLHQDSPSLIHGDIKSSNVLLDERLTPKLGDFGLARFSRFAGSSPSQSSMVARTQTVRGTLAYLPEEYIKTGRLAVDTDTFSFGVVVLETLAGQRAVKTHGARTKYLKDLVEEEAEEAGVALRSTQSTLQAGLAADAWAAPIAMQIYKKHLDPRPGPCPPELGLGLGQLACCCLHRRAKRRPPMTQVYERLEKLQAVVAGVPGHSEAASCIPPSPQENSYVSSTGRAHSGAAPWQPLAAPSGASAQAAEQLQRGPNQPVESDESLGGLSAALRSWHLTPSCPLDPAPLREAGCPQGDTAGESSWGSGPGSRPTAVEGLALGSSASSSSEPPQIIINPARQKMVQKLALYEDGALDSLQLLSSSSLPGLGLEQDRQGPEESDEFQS

In turn, `COc1cc2ncc(-c3cccc(N[C@@H]4CCNC4)n3)n2nc1C1CC1` [Compound 97, (R)-6-(6-cyclopropyl-7-methoxyimidazo[1,2-b]pyridazin-3-yl)-N-(pyrrolidin-3-yl)pyridin-2-amine] returned a half-maximal inhibitory concentration (IC50) on IRAK1 of 253 nM.
As to `COc1cc2ncc(-c3cccc(N[C@H]4CNC[C@@H]4F)n3)n2nc1C(C)(O)C(F)(F)F` (single isomer, unassigned; fast-eluting) [Compound 133], the figures for the half-maximal inhibitory concentration (IC50) on IRAK4 and against IRAK1 were 98 nM and 3320 nM, respectively.
For the compound `c1cc(N[C@@H]2CCCNC2)nc(-c2cnc3ccc(-c4cnn5ccccc45)nn23)c1` [Compound 19, (R)-N-(piperidin-3-yl)-6-(6-(pyrazolo[1,5-a]pyridin-3-yl)imidazo[1,2-b]pyridazin-3-yl)pyridin-2-amine], the IC50 against IRAK4 was found to be 511 nM; against IRAK1, 194 nM.
For `COc1cc2ncc(-c3cccc(N[C@H]4CNC[C@@H]4C(F)(F)F)n3)n2nc1C1CC1` [Compound 99, 6-(6-cyclopropyl-7-methoxyimidazo[1,2-b]pyridazin-3-yl)-N-((3R,4S)-4-(trifluoromethyl)pyrrolidin-3-yl)pyridin-2-amine] the same measures were 3 nM and 821 nM.
In the case of `COc1cc2ncc(-c3nc(N[C@H]4CNCC[C@@H]4F)c(F)cc3F)n2nc1C1CC1` [Compound 108, 6-(6-cyclopropyl-7-methoxyimidazo[1,2-b]pyridazin-3-yl)-3,5-difluoro-N-((3S,4S)-4-fluoropiperidin-3-yl)pyridin-2-amine], the IC50 at IRAK4 is under 0.5 nM; against IRAK1, 5 nM.
For `COc1cc2ncc(-c3nc(N[C@@H]4CCCNC4)c(F)cc3F)n2nc1C1CC1` [Compound 106, (R)-6-(6-cyclopropyl-7-methoxyimidazo[1,2-b]pyridazin-3-yl)-3,5-difluoro-N-(piperidin-3-yl)pyridin-2-amine] the same measures were under 0.5 nM and 15 nM.
For `COc1cc2ncc(-c3nc(N[C@H]4CNCC[C@@H]4F)c(F)cc3F)n2nc1C(C)(C)O` [Compound 128, 2-(3-(3,5-difluoro-6-(((3S,4S)-4-fluoropiperidin-3-yl)amino)pyridin-2-yl)-7-methoxyimidazo[1,2-b]pyridazin-6-yl)propan-2-ol] the same measures were 15 nM and 129 nM.
For `COc1cc2ncc(-c3nc(N[C@@H]4CCCNC4)c(F)cc3F)n2nc1C(C)(C)O` [Compound 127, (R)-2-(3-(3,5-difluoro-6-(piperidin-3-ylamino)pyridin-2-yl)-7-methoxyimidazo[1,2-b]pyridazin-6-yl)propan-2-ol] the same measures were 30 nM and 146 nM.
On to `COc1cc2ncc(-c3cccc(N[C@H]4CNCC[C@@H]4F)n3)n2nc1C1CC1` [Compound 102, 6-(6-cyclopropyl-7-methoxyimidazo[1,2-b]pyridazin-3-yl)-N-((3S,4S)-4-fluoropiperidin-3-yl)pyridin-2-amine], for which the IC50 came to 2 nM against IRAK4 and 109 nM against IRAK1.
Turning to `COc1cc2ncc(-c3nc(N[C@H]4CNC[C@@H]4F)c(F)cc3F)n2nc1C1CC1` [Compound 107, 6-(6-cyclopropyl-7-methoxyimidazo[1,2-b]pyridazin-3-yl)-3,5-difluoro-N-((3S,4S)-4-fluoropyrrolidin-3-yl)pyridin-2-amine], the half-maximal inhibitory concentration (IC50) against IRAK4 was under 0.5 nM; at IRAK1 it was 3 nM.
Taken in the same sequence, the figures for `F[C@H]1CNC[C@@H]1Nc1cccc(-c2cnc3ccc(-c4cnn5ccccc45)nn23)n1` [Compound 9, N-((3S,4S)-4-fluoropyrrolidin-3-yl)-6-(6-(pyrazolo[1,5-a]pyridin-3-yl)imidazo[1,2-b]pyridazin-3-yl)pyridin-2-amine] were 54 nM and 81 nM.
Taken in the same sequence, the figures for `COc1cc2ncc(-c3nc(N[C@H]4CNC[C@@H]4F)c(F)cc3F)n2nc1C(C)(C)O` [Compound 126, 2-(3-(3,5-difluoro-6-(((3S,4S)-4-fluoropyrrolidin-3-yl)amino)pyridin-2-yl)-7-methoxyimidazo[1,2-b]pyridazin-6-yl)propan-2-ol] were 7 nM and 135 nM.
Taken in the same sequence, the figures for `COc1cc2ncc(-c3cccc(N[C@H]4CNC[C@@H]4F)n3)n2nc1C1CC1` [Compound 96, 6-(6-cyclopropyl-7-methoxyimidazo[1,2-b]pyridazin-3-yl)-N-((3S,4S)-4-fluoropyrrolidin-3-yl)pyridin-2-amine] were 2 nM and 153 nM.

A word on the IC50: it is the concentration at which inhibition is half-maximal.
